Data: BigSolDB 2.1

CCOc1ccccc1C(N)=O
solubility (mole fraction)
Conditions	288.15 K	293.15 K	298.15 K	303.15 K	308.15 K	313.15 K	318.15 K	323.15 K	328.15 K
in 1,4-dioxane	0.0116	0.0144	0.0175	0.0221	0.0272	0.0341	0.0427	0.0527	0.0653
in 2-butanone	0.0124	0.015	0.0179	0.0218	0.0268	0.0335	0.0413	0.0501	0.0609
in DMF	0.0485	0.0566	0.0653	0.0754	0.0875	0.101	0.117	0.133	0.151
in acetone	0.0124	0.0153	0.0184	0.0226	0.0277	0.0344	0.0424	0.0507	0.0611
in ethyl formate	0.00842	0.0103	0.0122	0.0151	0.0188	0.0238	0.0293	0.0354	0.0429
in isopropanol	0.00616	0.00748	0.00916	0.0122	0.0157	0.0205	0.0265	0.0339	0.0423
in methyl acetate	0.00747	0.00924	0.0114	0.0142	0.0182	0.023	0.0285	0.0349	0.0428
in n-butanol	0.00781	0.00989	0.0122	0.0158	0.0199	0.0251	0.0322	0.0402	0.0498
in n-butyl acetate	0.00505	0.00603	0.00705	0.0089	0.011	0.0134	0.0165	0.0201	0.0245
in n-pentanol	0.00858	0.0106	0.0131	0.0165	0.0207	0.026	0.0329	0.0406	0.0504
in n-propyl acetate	0.00566	0.0069	0.0082	0.0101	0.0122	0.015	0.0185	0.0227	0.0271
in sec-butanol	0.00735	0.00924	0.0117	0.0153	0.0198	0.0256	0.0326	0.0411	0.0518
